Reference: patent US20250092056A1, “URACIL DERIVATIVES HAVING VIRUS REPLICATION INHIBITORY ACTIVITY AND PHARMACEUTICAL COMPOSITION COMPRISING THE SAME” (Shionogi & Co., Ltd., priority 2022, published 2025)
Where two headings read alike, the source gives them in different places.

Assays:
SARS-CoV-2 = assay: Cytopathic effect (CPE) suppression effect confirmation test using HEK293T/ACE2-TMPRSS2 cells; assay type: cell-based; conditions: Severe acute respiratory syndrome coronavirus 2, HEK-293T
[1] = biological target: Recombinant SARS-CoV-2 3CL Protease (Severe acute respiratory syndrome coronavirus 2 (2019-nCoV) (SARS-CoV-2), UniProt P0DTD1); assay: biochemical; assay type: biochemical
[2] = 50% SARS-CoV-2 infected cell death inhibitory concentration, HEK293T/ACE2-TMPRSS2 cells, read-out: EC50
[3] = 50% SARS-CoV-2 3CL protease inhibitory concentration, read-out: IC50
[4] = 72 h, read-out: EC50 (50% SARS-CoV-2 infected cell death inhibitory concentration), class, HEK293T/ACE2-TMPRSS2 cells, CPE suppression, CellTiter-Glo 2.0 after 3 days culture
[5] = 72 h, read-out: EC50 (50% SARS-CoV-2 infected cell death inhibitory concentration), HEK293T/ACE2-TMPRSS2 cells, CPE suppression, CellTiter-Glo 2.0 after 3 days culture
[6] = 72 h, HEK293T/ACE2-TMPRSS2 cells, CPE suppression, CellTiter-Glo 2.0 after 3 days culture, read-out: EC50 (50% SARS-CoV-2 infected cell death inhibitory concentration), class

| SMILES | EC50 (SARS-CoV-2; [2]) [µM] | IC50 [1, 3] [µM] | EC50 (SARS-CoV-2; [4]) [µM] | other results |
| --- | --- | --- | --- | --- |
| N#CCn1c(N2CC(O)(C(F)(F)F)C2)c(-c2ccc(F)c(Cl)c2)c(=O)n(-c2cncc(C(F)F)n2)c1=O [Compound I-383] | < 0.1 | < 0.01 |  |  |
| N#CCn1c(N2CC3(CCOC3)C2)c(-c2ccc(F)c(Cl)c2)c(=O)n(-c2cnc3cc(Cl)ccn23)c1=O [Compound I-131] |  | < 0.01 | < 0.1 |  |
| CC1(O)CN(c2c(-c3ccc(F)c(Cl)c3)c(=O)n(-c3cncc(OC(F)F)n3)c(=O)n2CC#N)C1 [Compound I-354] | < 0.1 | < 0.01 |  |  |
| Cn1ccc(-c2c(-c3ccc(F)c(Cl)c3)c(=O)n(-c3cncc(Cl)c3)c(=O)n2CC#N)cc1=O [Compound I-303] | < 0.1 | < 0.01 |  |  |
| Cc1cncc(-n2c(=O)c(-c3ccc(F)c(Cl)c3)c(C#CC3CC3)n(CC#N)c2=O)c1 [Compound I-248] | 0.1 to 1 | < 0.01 |  |  |
| N#CCn1c(N2CC3(C2)CC(F)(F)C3)c(-c2ccc(F)c(C#N)c2)c(=O)n(-c2cncc(Cl)c2)c1=O [Compound I-372] | < 0.1 | < 0.01 |  |  |
| Cn1cnc(Cn2c(=O)c(-c3cccc(Cl)c3)c(N3Cc4ccccc4C3)n(CC#N)c2=O)n1 [Compound I-122] |  | > 0.1 | 1 to 5 |  |
| N#CCc1c(N2Cc3ccccc3C2)n(Cc2cc(F)c(F)c(F)c2)c(=O)n(-c2cncc(Cl)c2)c1=O [Compound I-185] |  | 0.027 |  | EC50 (SARS-CoV-2; [5]): 0.0405 µM |
| COCc1c(-c2ccc(F)c(Cl)c2)c(=O)n(-c2cncc(Cl)c2)c(=O)n1CC#N [Compound I-435] | < 0.1 | 0.01 to 0.1 |  |  |
| N#CCn1c(N2CCCO2)c(-c2ccc(F)c(Cl)c2)c(=O)n(-c2cncc(Cl)c2)c1=O [Compound I-242] | < 0.1 | 0.01 to 0.1 |  |  |
| N#CCn1c(N2Cc3ccccc3C2)c(Cc2cc(F)c(F)c(F)c2)c(=O)n(-c2cnc3ccccn23)c1=O [Compound I-040] |  | < 0.01 | < 0.1 |  |
| N#CCn1c(-c2ccc(C3CC3)cc2)c(N2CCCCC2)c(=O)n(-c2cncc(Cl)c2)c1=O [Compound I-265] | 0.1 to 1 | 0.01 to 0.1 |  |  |
| Cc1cncc(-n2c(=O)c(Cc3cc(F)c(F)c(F)c3)c(N3CC4(C3)CC(F)(F)C4)n(CC#N)c2=O)c1 [Compound I-105] |  | < 0.01 | < 0.1 |  |
| Cc1c(-c2ccc(F)c(Cl)c2)c(=O)n(-c2cncc(Cl)c2)c(=O)n1CC#N [Compound I-299] | < 0.1 | < 0.01 |  |  |
| N#CCn1c(N2CC(C(F)(F)F)C2)c(-c2cc(F)c(F)c(C#N)c2)c(=O)n(-c2cncc(Cl)c2)c1=O [Compound I-368] | < 0.1 | < 0.01 |  |  |
| N#CCn1c(N2CC3(C2)CC(F)(F)C3)c(-c2ccc(F)c(Cl)c2)c(=O)n(-c2cnc3cc(F)ccn23)c1=O [Compound I-149] |  | < 0.01 | < 0.1 |  |
| N#CCn1c(N2CC(O)(C(F)F)C2)c(-c2ccc(F)c(Cl)c2)c(=O)n(-c2cncc(OCF)n2)c1=O [Compound I-411] | < 0.1 | < 0.01 |  |  |
| N#CCn1c(N2CC(C(F)(F)F)C2)c(-c2ccc(F)c(C#N)c2)c(=O)n(-c2cncc(Cl)c2)c1=O [Compound I-374] | < 0.1 | < 0.01 |  |  |
| CC1(C)CCN(c2c(-c3ccc(F)c(Cl)c3)c(=O)n(-c3cc4n(c(=O)c3)CCC4)c(=O)n2CC#N)CC1 [Compound I-166] |  | > 0.1 | 1 to 5 |  |
| Cc1cncc(-n2c(=O)c(-c3ccc(F)c(Cl)c3)c(-c3ccc(N(C)C)cc3)n(CC#N)c2=O)c1 [Compound I-274] | < 0.1 | < 0.01 |  |  |
| N#CCn1c(N2CC3CCC(CC3)C2)c(Cc2cc(F)c(F)c(F)c2)c(=O)n(-c2cnc3ccccn23)c1=O [Compound I-038] |  |  | < 0.1 | IC50 [1]: 0.01 to 0.1 µM |
| Cc1c(-c2ccc(F)c(Cl)c2)c(=O)n(-c2cncc(Cl)c2)c(=O)n1CC(N)=O [Compound I-441] | < 0.1 | 0.01 to 0.1 |  |  |
| C[C@@H](C#N)n1c(N2CC[C@@](O)(C(F)F)C2)c(-c2ccc(F)c(Cl)c2)c(=O)n(-c2cncc(C#N)c2)c1=O (single isomer, unassigned) [Compound I-433] | < 0.1 | < 0.01 |  |  |
| Cc1cc(-n2c(=O)c(-c3ccc(F)c(Cl)c3)c(N3CC4(C3)CC(F)(F)C4)n(CC#N)c2=O)c[n+]([O-])c1 [Compound I-278] | 0.1 to 1 | < 0.01 |  |  |
| Cc1cnnc(-n2c(=O)c(Cc3cc(F)c(F)c(F)c3)c(N3CC4(CCOC4)C3)n(CC#N)c2=O)c1 [Compound I-036] |  | > 0.1 | 0.1 to 1 |  |

| SMILES | EC50 (SARS-CoV-2; [2]) [µM] | IC50 [1, 3] [µM] | EC50 (SARS-CoV-2; [4]) [µM] | other results |
| --- | --- | --- | --- | --- |
| N#CCn1c(N2CC(O)(c3ncccn3)C2)c(-c2ccc(F)c(Cl)c2)c(=O)n(-c2cncc(C(F)F)n2)c1=O [Compound I-336] | < 0.1 | < 0.01 |  |  |
| C[C@@H](C#N)n1c(N2CC[C@](O)(C(F)F)C2)c(-c2ccc(F)c(F)c2)c(=O)n(-c2cncc(Cl)c2)c1=O (single isomer, unassigned) [Compound I-434] | < 0.1 | < 0.01 |  |  |
| N#CCn1c(N2CCC(C(F)F)CC2)c(-c2ccc(F)c(C#N)c2)c(=O)n(-c2cncc(Cl)c2)c1=O [Compound I-398] | < 0.1 | < 0.01 |  |  |
| N#CCn1c(N2CC3(CCOC3)C2)c(-c2ccc(F)c(Cl)c2)c(=O)n(-c2cnc3ccccn23)c1=O [Compound I-043] |  | 0.01 to 0.1 |  | EC50 (SARS-CoV-2; [6]): 0.1 to 1 µM |
| N#CCn1c(N2C[C@H]3C[C@@H]2CN3)c(-c2ccc(F)c(Cl)c2)c(=O)n(-c2cncc(Cl)c2)c1=O [Compound I-146] |  | < 0.01 | 0.1 to 1 |  |
| Cc1cncc(-n2c(=O)c(-c3ccc(F)c(Cl)c3)c(N3Cc4cn[nH]c4C3)n(CC#N)c2=O)c1 [Compound I-074] |  | < 0.01 | < 0.1 |  |
| C[C@H](C#N)n1c(N2CC(C(C)(C)O)C2)c(-c2ccc(F)c(Cl)c2)c(=O)n(-c2cncc(Cl)c2)c1=O (single isomer, unassigned) [Compound I-288] | < 0.1 | < 0.01 |  |  |
| CC(C)(C)OC(=O)C(C#N)n1c(N2CCC(C(F)(F)F)CC2)c(-c2ccc(F)c(Cl)c2)c(=O)n(-c2cncc(Cl)c2)c1=O (racemic) [Compound I-050] |  | 0.01 to 0.1 |  | EC50 (SARS-CoV-2; [6]): < 0.1 µM |
| Cc1cncc(-n2c(=O)c(Cc3cc(F)c(F)c(F)c3)c(N3CCC(C(N)=O)C3)n(CC#N)c2=O)c1 (racemic) [Compound I-100] |  | < 0.01 | < 0.1 |  |
| N#CCn1c(Cl)c(-c2ccc(F)c(Cl)c2)c(=O)n(-c2cnc3cc(Cl)ccn23)c1=O [Compound I-126] |  | > 0.1 | 1 to 5 |  |
| N#CCn1c(N2CC(C(F)F)C2)c(-c2ccc(F)c(Cl)c2)c(=O)n(-c2cncc(Cl)c2)c1=O [Compound I-250] |  | 0.00054 |  | EC50 (SARS-CoV-2; [5]): 0.00331 µM |
| Cc1cncc(-n2c(=O)c(Cc3cc(F)c(F)c(F)c3)c(N3CCC4(C3)NC(=O)NC4=O)n(CC#N)c2=O)c1 (racemic) [Compound I-095] |  | 0.01 to 0.1 |  | EC50 (SARS-CoV-2; [6]): 1 to 5 µM |
| C#CCn1c(CC(C)(C)F)c(-c2ccc(F)c(Cl)c2)c(=O)n(-c2cncc(Cl)c2)c1=O [Compound I-440] | < 0.1 | < 0.01 |  |  |
| Cc1cncc(-n2c(=O)c(-c3ccc(F)c(Cl)c3)c(N3C[C@@H]4C[C@H]3CO4)n(CC#N)c2=O)c1 [Compound I-225] | < 0.1 | < 0.01 |  |  |
| N#CCn1c(N2CC(OC(F)(F)F)C2)c(-c2ccc(F)c(Cl)c2)c(=O)n(-c2cncc(C#N)c2)c1=O [Compound I-311] | < 0.1 | < 0.01 |  |  |
| Cc1cncc(-n2c(=O)c(Cc3cc(F)c(F)c(F)c3)c(N3CCC(C)(F)C3)n(CC#N)c2=O)c1 (racemic) [Compound I-115] |  | < 0.01 | < 0.1 |  |
| CC(C)(O)[C@@H]1CCN(c2c(-c3ccc(F)c(Cl)c3)c(=O)n(-c3cncc(C#N)c3)c(=O)n2CC#N)C1 [Compound I-313] | < 0.1 | < 0.01 |  |  |
| Cc1cncc(-n2c(=O)c(-c3ccc(F)c(Cl)c3)c(N3C[C@H]4C[C@@H]3CO4)n(CC#N)c2=O)c1 [Compound I-226] | < 0.1 | < 0.01 |  |  |
| Cc1cncc(-n2c(=O)c(-c3ccc(F)c(Cl)c3)c(-c3ccc(C(=O)OC(C)(C)C)cc3)n(CC#N)c2=O)c1 [Compound I-027] |  | > 0.1 | 0.1 to 1 |  |
| N#CCn1c(N2CCC(F)(F)CC2)c(-c2cc(Cl)cc(C#N)c2)c(=O)n(-c2cncc(Cl)c2)c1=O [Compound I-330] | < 0.1 | < 0.01 |  |  |
| N#CCn1c(N2CC[C@@](O)(c3ccccc3)C2)c(-c2ccc(F)c(Cl)c2)c(=O)n(-c2cncc(Cl)c2)c1=O (single isomer, unassigned) [Compound I-240] | < 0.1 | < 0.01 |  |  |
| Cc1cncc(-n2c(=O)c(Cc3cc(F)c(F)c(F)c3)c(N3CC4CC(F)(F)C4C3)n(CC#N)c2=O)c1 (racemic) [Compound I-103] |  | < 0.01 | < 0.1 |  |
| Cc1cncc(-n2c(=O)c(-c3ccc(F)c(Cl)c3)c(-c3cn[nH]c3)n(CC#N)c2=O)c1 [Compound I-279] | < 0.1 | < 0.01 |  |  |
| Cc1cncc(-n2c(=O)c(Cc3cc(F)c(F)c(F)c3)c(N3CCC(O)(C(F)(F)F)CC3)n(CC#N)c2=O)c1 [Compound I-116] |  | < 0.01 | < 0.1 |  |
| N#CCn1c(N2Cc3ccccc3C2)c(-c2cccc(Cl)c2)c(=O)n(Cc2ccc[nH]c2=O)c1=O [Compound I-124] |  | < 0.01 | < 0.1 |  |
